≈ marks a conversion by molar mass, not a printed value. Read-outs that look alike come from different tables or passages of the source.
What was measured:
[1] = in vitro; conditions: human, 50% human plasma (pooled, sodium heparin) in PBS, pH 7.4
[2] = system: S. pneumoniae ATCC 700677 MDR; experiment: microbe, parasite or virus in culture; type: cell-based, Streptococcus pneumoniae; conditions: for MIC: Streptococcus pneumoniae, ATCC700677, 24 h, read-out: MIC S. pneumoniae ATCC 700677 MDR
Method: (§1) The compounds, along with standard antibiotics were serially diluted twofold across the wells of 96-well non-binding surface (NBS) polystyrene plates (Corning 3641). […] Standards ranged from 64 to 0.03 µg mL^−1 and compounds from 8 to 0.003 µg mL^−1 with final assay volumes of 100 µL per well. Gram-positive bacteria were cultured in Mueller Hinton broth (MHB) (Bactolaboratories, Cat. no. 211443) at 37 °C overnight. A sample of each culture was then diluted 40-fold in fresh MHB and incubated at 37 °C for 2–3 h. The resultant mid-log phase cultures were added to the compound-containing 96-well plates to give a final cell density of 5 × 10^5 colony forming unit (CFU) mL^−1. All the plates were covered and incubated at 37 °C for 24 h. MICs were the lowest concentration showing no visible growth.

[3] = cited from earlier work; for log decrease: CAMHB with polysorbate-80; for log reduction from initial inoculum: nutrient-depleted media, ref Belley AAC 2009 53, 918
[4] = system: S. aureus ATCC 43300 MRSA; experiment: microbe, parasite or virus in culture; type: cell-based, Staphylococcus aureus; conditions: for MIC: Staphylococcus aureus, 24 h, read-out: MIC S. aureus ATCC 43300 MRSA
Method: as §1

[5] = system: S. pneumoniae ATCC 33400; experiment: microbe, parasite or virus in culture; type: cell-based, Streptococcus pneumoniae; conditions: for MIC: Streptococcus pneumoniae, ATCC33400, 24 h, read-out: MIC S. pneumoniae ATCC 33400
Method: as §1

[6] = system: bioluminescent MSSA Xen-29; experiment: Bioluminescence IP infection in vivo model (neutropenic mice); parameters: species or system Staphylococcus aureus; conditions: SC: 200 mg kg^−1 vancomycin, 50 mg kg^−1 daptomycin, 25 mg kg^−1 19 or 24
Method: Performed at the University of Queensland, following similar previous literature procedures. Xen-29 (Caliper LifeSciences), a methicillin-sensitive S. aureus (MSSA) strain which contains a copy of the modified luxABCDE operon of Photorhabdus luminescens was taken from the storage at −80 °C and freshly seeded on agar plates for overnight growth at 37 °C. From the overnight culture preparation, a single colony (tested for bioluminescence) was diluted into 10 mL of MHB and incubated overnight at 37 °C. A mid log-phase subculture was obtained by adding 100 μL of overnight subculture in 10 mL MHB and incubated for a further 2–3 h. Finally, the OD600 value of the bacterial suspension was determined and the colony forming units per millilitre (CFU mL^−1) was extrapolated. The suspension was then diluted out accordingly in order to achieve a 2.5 × 10^8 CFU mL^−1 solution (2.5 × 10^7 CFU in 100 μL). […] Mice were monitored for signs of normal behaviour (i.e. grooming, eating, drinking, sleeping and alertness) during and following dosing. […] Xen-29 colonies were then counted, with the CFU mL^−1 blood calculated. […] Luminescent images were quantified with the IVIS Living Image software where the total flux (number of photons/second) was calculated by a user defined region of interest (ROI) covering the infection sites.

SMILES: CCCCCCCCCCC(=O)N[C@@H](CCCCN)C(=O)N[C@@H](CCCCN)C(=O)N[C@@H](CCCCN)C(=O)N[C@@H](CCCCNC(=O)[C@H]1NC(=O)[C@H]2NC(=O)[C@H](NC(=O)[C@@H]3NC(=O)[C@H](CC(N)=O)NC(=O)[C@H](NC(=O)[C@@H](CC(C)C)NC)[C@H](O)c4ccc(c(Cl)c4)Oc4cc3cc(c4O[C@@H]3O[C@H](CO)[C@@H](O)[C@H](O)[C@H]3O[C@H]3C[C@](C)(N)[C@H](O)[C@H](C)O3)Oc3ccc(cc3Cl)[C@H]2O)c2ccc(O)c(c2)-c2c(O)cc(O)cc21)C(=O)O [Compound 18, nC10CO-KKK-K(Vancomycin)-OH]
- remaining at 1 h, 20 µM [1]: 87%
- remaining at 3 h, 20 µM [1]: 87%
- remaining at 6 h, 20 µM [1]: 83%
- remaining at 24 h, 20 µM [1]: 93%

SMILES: CNC(=O)[C@H](CCCCNC(=O)[C@H]1NC(=O)[C@H]2NC(=O)[C@H](NC(=O)[C@@H]3NC(=O)[C@H](CC(N)=O)NC(=O)[C@H](NC(=O)[C@@H](CC(C)C)NC)[C@H](O)c4ccc(c(Cl)c4)Oc4cc3cc(c4O[C@@H]3O[C@H](CO)[C@@H](O)[C@H](O)[C@H]3O[C@H]3C[C@](C)(N)[C@H](O)[C@H](C)O3)Oc3ccc(cc3Cl)[C@H]2O)c2ccc(O)c(c2)-c2c(O)cc(O)cc21)NC(=O)[C@H](CCCCN)NC(=O)[C@H](CCCCN)NC(=O)[C@H](CCCCNC(=O)c1ccc(Oc2ccccc2)cc1)NC(=O)c1ccc(Oc2ccccc2)cc1 [Compound 24, POB2K-KK-K(Vancomycin)-NHMe]
- MIC S. pneumoniae ATCC 700677 MDR ([2]; 5% Survanta): 0.25 µg/mL (≈ 0.106 µM)
- MIC S. pneumoniae ATCC 700677 MDR ([2]; no added Survanta): ≤ 0.003 µg/mL
- remaining at 1 h, 20 µM [1]: 100%
- remaining at 3 h, 20 µM [1]: 100%
- remaining at 6 h, 20 µM [1]: 106%
- remaining at 24 h, 20 µM [1]: 89%

SMILES: CN[C@H](CC(C)C)C(=O)N[C@H]1C(=O)N[C@@H](CC(N)=O)C(=O)N[C@H]2C(=O)N[C@H]3C(=O)N[C@H](C(=O)N[C@H](C(=O)O)c4cc(O)cc(O)c4-c4cc3ccc4O)[C@H](O[C@H]3C[C@](C)(N)[C@@H](O)[C@H](C)O3)c3ccc(c(Cl)c3)Oc3cc2cc(c3O[C@@H]2O[C@H](CO)[C@@H](O)[C@H](O)[C@H]2O[C@H]2C[C@](C)(NCc3ccc(-c4ccc(Cl)cc4)cc3)[C@@H](O)[C@H](C)O2)Oc2ccc(cc2Cl)[C@H]1O [Compound 5, Oritavancin, reference compound]
- log decrease ([3]; 4 µg mL-, 1h, ref Belley AAC 2016 60 4342): 4.5 log
- log decrease ([3]; 4 µg mL-, 1h, ref Mckay, J Antimicrob Chemother 2009, 63 1191): 4.5 log
- log reduction from initial inoculum ([3]; 4 µg mL-): 3 log
- log decrease ([3]; 16 µg mL-, 30 min, ref Belley AAC 2016 60 4342): 4.5 log
- log reduction from initial inoculum ([3]; 16 µg mL-, 3h, no polysorbate-80): approximately 4 log

SMILES: CCCCCCCCCC(=O)N[C@@H](Cc1c[nH]c2ccccc12)C(=O)N[C@H](CC(N)=O)C(=O)N[C@@H](CC(=O)O)C(=O)N[C@@H]1C(=O)NCC(=O)N[C@@H](CCCN)C(=O)N[C@@H](CC(=O)O)C(=O)N[C@H](C)C(=O)N[C@@H](CC(=O)O)C(=O)NCC(=O)N[C@H](CO)C(=O)N[C@@H]([C@H](C)CC(=O)O)C(=O)N[C@@H](CC(=O)c2ccccc2N)C(=O)O[C@@H]1C [Compound 4, Daptomycin]
- MIC ([4]; 1% Survanta): > 8 µg/mL
- MIC ([4]; 5% Survanta): > 8 µg/mL
- MIC ([4]; no added Survanta): 2 µg/mL (≈ 1.23 µM)
- MIC ([5]; 1% Survanta): > 8 µg/mL
- MIC ([5]; 5% Survanta): > 8 µg/mL
- MIC ([5]; no added Survanta): 2 to 4 µg/mL (≈ 1.23 to 2.47 µM)
- MIC ([2]; 1% Survanta): > 8 µg/mL
- MIC ([2]; 5% Survanta): > 8 µg/mL
- MIC ([2]; no added Survanta): 4 µg/mL (≈ 2.47 µM)
- Change in bioluminescence signal (total flux) after inoculation [6]: progressive reduction in the bioluminescence signal

SMILES: CCCCCCCCCCC(=O)N[C@@H](CCCCN)C(=O)N[C@@H](CCCCN)C(=O)N[C@@H](CCCCNC(=O)[C@H]1NC(=O)[C@H]2NC(=O)[C@H](NC(=O)[C@@H]3NC(=O)[C@H](CC(N)=O)NC(=O)[C@H](NC(=O)[C@@H](CC(C)C)NC)[C@H](O)c4ccc(c(Cl)c4)Oc4cc3cc(c4O[C@@H]3O[C@H](CO)[C@@H](O)[C@H](O)[C@H]3O[C@H]3C[C@](C)(N)[C@H](O)[C@H](C)O3)Oc3ccc(cc3Cl)[C@H]2O)c2ccc(O)c(c2)-c2c(O)cc(O)cc21)C(N)=O [Compound 21, nC10CO-KK-K(Vancomycin)-NH2]
- MIC S. aureus ATCC 43300 MRSA ([4]; 1% Survanta): 0.007 µg/mL (≈ 0.0035 µM)
- MIC S. aureus ATCC 43300 MRSA ([4]; 5% Survanta): 0.03 µg/mL (≈ 0.015 µM)
- MIC S. aureus ATCC 43300 MRSA ([4]; no added Survanta): 0.015 µg/mL (≈ 0.0075 µM)

SMILES: CCCCCCCCCCCCCC(=O)N[C@@H](CCCCN)C(=O)N[C@@H](CCCCN)C(=O)N[C@@H](CCCCN)C(=O)N[C@@H](CCCCNC(=O)[C@H]1NC(=O)[C@H]2NC(=O)[C@H](NC(=O)[C@@H]3NC(=O)[C@H](CC(N)=O)NC(=O)[C@H](NC(=O)[C@@H](CC(C)C)NC)[C@H](O)c4ccc(c(Cl)c4)Oc4cc3cc(c4O[C@@H]3O[C@H](CO)[C@@H](O)[C@H](O)[C@H]3O[C@H]3C[C@](C)(N)[C@H](O)[C@H](C)O3)Oc3ccc(cc3Cl)[C@H]2O)c2ccc(O)c(c2)-c2c(O)cc(O)cc21)C(=O)O [Compound 17, nC13CO-KKK-K(Vancomycin)-OH]
- remaining at 1 h, 20 µM [1]: 79%
- remaining at 3 h, 20 µM [1]: 79%
- remaining at 6 h, 20 µM [1]: 62%
- remaining at 24 h, 20 µM [1]: 66%

SMILES: CN[C@H]1C(=O)N[C@@H]2Cc3ccc(cc3)Oc3cc4cc(c3O[C@@H]3O[C@H](C(=O)O)[C@@H](O)[C@H](O)[C@H]3NC(=O)CCCCCCCCC(C)C)Oc3ccc(cc3Cl)[C@@H](O)[C@@H]3NC(=O)[C@H](NC(=O)[C@@H]4NC(=O)[C@@H](NC2=O)c2cc(cc(O)c2Cl)Oc2cc1ccc2O)c1ccc(O)c(c1)-c1c(O[C@H]2O[C@H](CO)[C@@H](O)[C@H](O)[C@@H]2O)cc(O)cc1[C@@H](C(=O)NCCCN(C)C)NC3=O [Compound 3, Dalbavancin]
- MIC S. aureus ATCC 43300 MRSA ([4]; 1% Survanta): 0.06 µg/mL (≈ 0.033 µM)
- MIC S. aureus ATCC 43300 MRSA ([4]; 5% Survanta): 0.125 µg/mL (≈ 0.0688 µM)
- MIC S. pneumoniae ATCC 33400 ([5]; 1% Survanta): 0.06 µg/mL (≈ 0.033 µM)
- MIC S. pneumoniae ATCC 33400 ([5]; 5% Survanta): 0.125 µg/mL (≈ 0.0688 µM)
- MIC S. pneumoniae ATCC 33400 ([5]; no added Survanta): 0.06 µg/mL (≈ 0.033 µM)
- MIC S. pneumoniae ATCC 700677 MDR ([2]; 1% Survanta): 0.06 µg/mL (≈ 0.033 µM)
- MIC S. pneumoniae ATCC 700677 MDR ([2]; no added Survanta): 0.06 µg/mL (≈ 0.033 µM)
- log reduction ([3]; 32 µg mL-, 24h, ref Belley AAC 2016 60 4342): 3 log

From PMC5750218, “Protein-inspired antibiotics active against vancomycin- and daptomycin-resistant bacteria” (Nature Communications, 2018)
